Experimental data: US8741578B2, “Methods of detecting chronic lymphocytic leukemia with Hsp90 and ZAP-70” (The Regents of the University of California, priority 2004, dated 2014)
pIC50: −log10 of the molar value. Values joined by “and” are separate entries in the source; they are usually repeats but may differ in a detail not shown here. Equal values may be shown once. “Also recorded” adds a separate entry of the source. Read-outs that look alike come from different tables or passages of the source.

What was measured:
[1] = tested on: Purified native Hsp90 protein; settings: read-out: IC50, inhibition of binding of Hsp90 to biotin-GM
Experimental: Valencia, Calif.) for 1 h at 4° C. Tubes were placed on a magnetic rack, and the unbound supernatant removed. The magnetic beads were washed in lysis buffer and heated for 5 min at 95° C. in SDS-PAGE sample buffer. Samples were analyzed on SDS protein gels, and immunoblots performed using the indicated antibodies. The band intensities in the immunoblots were assessed using the Bio-rad Fluor-S MultiImager, and the percentage inhibition of binding of Hsp90 to the biotin-GM calculated.

[2] = tested on: CLL cells; experiment: Apoptosis of primary CLL cells by flow cytometry (DiOC6/PI); settings: 100 nM; for Apoptosis after treatment: ZAP-70+ CLL cells
Experimental: IgVH gene mutation was assessed by gene sequencing. Sequences with less than 98 percent homology to the corresponding germ-line IgVH sequence were considered mutated. […] Peripheral blood mononuclear cells (PBMC) from CLL patients were obtained from the CLL Research Consortium (CRC) tissue bank. […] ZAP-70 expression and IgVH gene mutational status were assessed. Cells were incubated in RPMI media at 37° C. with 5% CO2. […] Cell samples were incubated also in media with DMSO (1%) as a control.
(§1) Fluorochrome-conjugated monoclonal antibodies were used for flow cytometry. The samples were processed using a FACScalibur (Becton-Dickinson B D, Franklin Lakes, N.J.) and the data were analyzed using Flo-Jo 3.6 software (Stanford University-Tree Star Inc. San Francisco, Calif.). Apoptotic and viable cells were discriminated via flow cytometry with 3,3′ dihexyloxacarbocyanine iodide (DiOC6) (Molecular Probes, Eugene, Oreg.) and propidium iodide (Sigma, St. Louis, Mo.). Using this method viable cells exclude PI and stain brightly positive for DiOC6.

[3] = tested on: Ad-ZAP-70 transduced CLL cells; experiment: Apoptosis of ZAP-70-negative CLL cells transduced with Ad-ZAP-70; type: cell-based, human; settings: 100 nM, 48 hours after 48 hours of transduction; P≦0.001
Experimental: . (A) ZAP-70-negative leukemia cells were transduced with adenovirus expressing ZAP-70 (Ad-ZAP-70—solid histogram) and β-galactosidase (Ad-LacZ—bold line histogram). Cells were kept in media as a control (dashed line histogram). After 48 hours in culture Ad-ZAP-70 but not Ad-LacZ transduced cells expressed the ZAP-70 transgene (46% expression with a mean fluorescence intensity ratio (MFIR) of 2.8). (B) ZAP-70-negative CLL cells were transduced with adenovirus and after 48 hours they were harvested and lysed. Immunoprecipitations (IP) and immunoblots were performed with the antibodies indicated. […]
cDNA of ZAP-70 extracted from normal T cells was cloned into the CMV promoter and polyadenylation signal of pcDNA3. This construct was then subcloned into the shuttle vector MCS(SK)pXCX2. This shuttle vector was cotransfected with pJM17 into 293 cells using the calcium phosphate method.
Isolated adenovirus plaques were harvested and used to infect 293 cells. High titer adenovirus preparations were obtained. CLL cells were infected with either Ad-ZAP-70 or a control adenovirus vector (Ad-LacZ) for 48 hours at 37° C. using a multiplicity of infection (MOI) of 1000.
. ZAP-70-negative CLL cells were transduced with an adenovirus vector encoding ZAP-70 (Ad-ZAP-70) or β-galactosidase (Ad-LacZ) as a control. […]

[4] = tested on: CLL cells in whole blood; experiment: Whole blood apoptosis test of CLL subpopulation (DiOC6, anti-CD5/anti-CD19); settings: different concentrations, room temperature
Experimental: For example, whole blood cells from patients with CLL or suspected of having CLL can be obtained. […] Red cells are lysed using ammonium-chloride buffer. The cells are stained with specific antibodies and DiOC6. Samples are analyzed by flow cytometry to show a density plot of cells labeled with anti-CD5 and anti-CD19.

[5] = tested on: ZAP-70 in CLL cells; experiment: ZAP-70 expression in CLL cells after treatment (intracellular staining, immunoblot); type: cell-based, human; settings: for pIC50: read-out: IC50, dose-dependent reduction of leukemia-cell ZAP-70 expression
Experimental: Cells incubated in media with DMSO 1% final concentration were used as a control (⋄). ZAP-70 expression was evaluated by intracellular staining. […] In addition, immunoblots were probed with anti-Hsp70 and anti-poly ADP-ribose polymerase (PARP-1) monoclonal antibodies. β-actin was used as a protein loading control. […] The cells were stained with specific antibodies and analyze by flow cytometry.
(§2) Protein lysates for immunoblot studies were prepared using RIPA buffer with protease inhibitors (10 μg/ml aprotinin, 10 μg/ml leupeptin, 10 μg/ml pepstatin and 1 mM phenylmethylsulfonyl fluoride), and in some cases phosphatase inhibitors (1 mM Na-Vanadate and 10 mM β-Glycerophosphate). Membranes were probed with antibodies as indicated. Detection was accomplished by chemiluminescence using horseradish peroxidase (HRP) conjugated antibodies followed by development with ECL Plus (Amersham-Biosciences Piscataway, N.J.) and autoradiography with Super RX film (Fuji, Tokyo, Japan)
as §1

[6] = tested on: B-cell receptor (BCR) signaling in ZAP-70+ CLL cells; experiment: B-cell receptor signaling after anti-μ stimulation in ZAP-70+ CLL cells (IP/immunoblot)
Experimental: Pxotein lysates were immunoprecipitated (IP) with specific anti-p72^Syk antibody and assessed by western blot (WB) for tyrosine phosphorylation using 4G10 antibody and p72^Syk expression. Protein lysates from the same samples were evaluated by western blot using the indicated antibodies. Activation of NF-κB was assessed by degradation of IκB-α.
Lysates were prepared as described above. Protein-A Sepharose beads (Zymed Laboratories Inc South San Francisco, Calif.) were pre-blocked with 5% BSA. The cell lysates were pre-cleared by incubating with 50 μl of protein-A Sepharose beads (50% slurry). To 100 μl of the pre-cleared cell lysate, either no antibody or antibodies to Hsp90, ZAP-70, p23, Hop, or p72^Syk were added, and incubated by rotating for 1 h at 4° C. Fifty μl of pre-cleared beads (50% slurry) were then added and incubated by rotating for 1 h at 4° C. Bound beads were centrifuged at 3,000×g and unbound samples were collected.
as §2

[7] = tested on: ZAP-70 in T cells; experiment: ZAP-70 expression in T cells after treatment (flow cytometry); type: cell-based, human
Experimental: Cells incubated in media with DMSO 1% final concentration were used as a control (⋄). ZAP-70 expression was evaluated by intracellular staining. […] The cells were stained with specific antibodies and analyze by flow cytometry.
Fluorochrome-conjugated monoclonal antibodies were used for flow cytometry. The samples were processed using a FACScalibur (Becton-Dickinson B D, Franklin Lakes, N.J.) and the data were analyzed using Flo-Jo 3.6 software (Stanford University-Tree Star Inc. San Francisco, Calif.).

[8] = tested on: Hsp90 from ZAP-70-negative CLL cells, normal B and T cells; settings: read-out: IC50, inhibition of binding of Hsp90 to biotin-GM; lysates from ZAP-70-negative CLL cells or normal T or B cells
Experimental: The binding affinity of the ligand is measured by its ability to inhibit the binding of geldanamycin, an inhibitor of Hsp90. The cell containing the Hsp90 is lysed in lysis buffer. The lysates are incubated with or without test agent and then incubated with biotin-geldanamycin linked to BioMag™ sreptavidin magnetic beads (Qiagen). The bound samples and the unbound supernatant can be separately collected and analyzed on SDS protein gels, and blotted using and Hsp90 antibody. The bands in the Western Blots may be quantitated using the Biorad Fluor-S MultiImager, and the percent inhibition of binding of Hsp90 to the biotin-geldanamycin calculated.
Tubes were placed on a magnetic rack, and the unbound supernatant removed. The magnetic beads were washed in lysis buffer and heated for 5 min at 95° C. in SDS-PAGE sample buffer. Samples were analyzed on SDS protein gels, and immunoblots performed using the indicated antibodies. The band intensities in the immunoblots were assessed using the Bio-rad Fluor-S MultiImager, and the percentage inhibition of binding of Hsp90 to the biotin-GM calculated.

Row | SMILES | pIC50 [1] | 17-AAG-induced apoptosis, % ([2]; 48 hours, primary CLL cells, each table row is one patient sample (patient no. 1-25)) | Apoptosis after treatment ([2]; 24 hours) | Apoptosis after treatment ([2]; 72 hours) | Apoptosis compared with non-transduced or Ad-LacZ transduced cells [3] | Induction of apoptosis in whole blood CLL subpopulation [4] | Post-treatment ZAP-70 mean fluorescence intensity (MFI) ([5]; CLL cells, 300 nM, 48 hours, prior to treatment 110) | pIC50 ([5]; Homo sapiens, CLL cell, 24 h) | Effect on level/degradation of p72Syk, IKK-α ([6]; ZAP-70+ CLL cells) | Response to BCR ligation with anti-μ (p72Syk phosphorylation, IκB-α degradation) ([6]; prior treatment for ≧24 hours) | Effect on ZAP-70 expression in T cells ([7]; T cells from CLL patients or healthy donors, even at ≧300 nM) | Post-treatment ZAP-70 mean fluorescence intensity (MFI) ([7]; T cells, 300 nM, 48 hours, prior to treatment 210) | pIC50 [8] | pIC50 ([5]; ZAP-70+ CLL cells, after 24 hours)
1 | C=CCNC1=C2CC(C)CC(OC)C(O)C(C)/C=C(\C)C(OC(N)=O)C(OC)/C=C\C=C(/C)C(=O)NC(=CC1=O)C2=O (centres unmarked) [17-AAG, 17-allylamino-17-demethoxygeldanamycin] | 6.22 | 4.7% and 11.5% and 12.3% and 14.9% and 3.7% and 0.5% and 12.6% and 3.4% and 22.4% and 55.4% and 33.9% and 37.9% and 35.4% and 41.3% and 57.9% and 57.7% and 67.4% and 69.4% and 66.8% and 78.8% and 79.9% and 74.4% and 3.9% and 4.5% and 1.2% | 30% | 50% | significantly higher level of apoptosis | exclusively in the ZAP-70 positive cells | 25 | 7.22 | did not alter the level of p72^Syk; also recorded: did not induce degradation of p72^Syk or IKK-α | inert to stimulation with anti-μ antibody | did not affect ZAP-70 expression levels in T cells | 190 | ≤ 6.52 | –
2 | CO[C@H]1/C=C\C=C(/C)C(=O)NC2=CC(=O)C(NCCN(C)C)=C(C[C@@H](C)C[C@H](OC)[C@H](O)[C@@H](C)/C=C(\C)[C@@H]1OC(N)=O)C2=O [17-DMAG, 17-(2-dimethylaminoethy)amino-17-demethoxygeldanamycin] | – | – | – | – | – | – | – | – | – | – | – | – | – | 7.22
